According to BindingDB's records for doi:10.1172/JCI119225 (Cedars-Sinai Research Institute, 1997):
Bridge positions count the residues as written; N and C are the ends. Square brackets hold non-standard residues; d marks the D form. Peptide text beside a SMILES is read from it. d2Nal = N[C@H](Cc1ccc2ccccc2c1)C(=O)O

Assays:
[1] = biological target: Somatostatin receptor type 4 (Homo sapiens, UniProt P31391)
[2] = biological target: Somatostatin receptor type 5 (Homo sapiens, UniProt P35346)
[3] = biological target: Somatostatin receptor type 3 (Homo sapiens, UniProt P32745)
[4] = biological target: Somatostatin receptor type 2 (Homo sapiens, UniProt P30874)
Sequence of Somatostatin receptor type 2 (P30874 whole entry): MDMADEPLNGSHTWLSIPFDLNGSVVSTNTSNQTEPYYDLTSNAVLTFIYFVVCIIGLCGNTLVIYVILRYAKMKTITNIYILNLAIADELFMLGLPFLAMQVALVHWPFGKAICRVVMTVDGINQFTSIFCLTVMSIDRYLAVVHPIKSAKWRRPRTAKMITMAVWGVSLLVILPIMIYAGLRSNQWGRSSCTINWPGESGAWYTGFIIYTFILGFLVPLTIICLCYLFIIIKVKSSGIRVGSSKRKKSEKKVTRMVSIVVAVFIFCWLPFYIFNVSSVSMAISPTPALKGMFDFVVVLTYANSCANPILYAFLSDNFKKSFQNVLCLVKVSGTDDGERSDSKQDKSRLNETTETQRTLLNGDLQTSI

Sequence of Somatostatin receptor type 4 (P31391 whole entry): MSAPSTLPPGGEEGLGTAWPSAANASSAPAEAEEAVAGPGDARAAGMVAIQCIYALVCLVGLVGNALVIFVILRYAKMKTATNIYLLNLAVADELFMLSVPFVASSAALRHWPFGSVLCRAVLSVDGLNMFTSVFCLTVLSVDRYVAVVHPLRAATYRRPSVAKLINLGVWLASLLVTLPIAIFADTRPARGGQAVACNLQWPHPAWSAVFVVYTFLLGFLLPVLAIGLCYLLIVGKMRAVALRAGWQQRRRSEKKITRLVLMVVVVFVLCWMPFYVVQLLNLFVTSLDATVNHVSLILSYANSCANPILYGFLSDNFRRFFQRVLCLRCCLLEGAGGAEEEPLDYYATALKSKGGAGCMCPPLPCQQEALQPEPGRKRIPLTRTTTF
Sequence of Somatostatin receptor type 3 (P32745 whole entry): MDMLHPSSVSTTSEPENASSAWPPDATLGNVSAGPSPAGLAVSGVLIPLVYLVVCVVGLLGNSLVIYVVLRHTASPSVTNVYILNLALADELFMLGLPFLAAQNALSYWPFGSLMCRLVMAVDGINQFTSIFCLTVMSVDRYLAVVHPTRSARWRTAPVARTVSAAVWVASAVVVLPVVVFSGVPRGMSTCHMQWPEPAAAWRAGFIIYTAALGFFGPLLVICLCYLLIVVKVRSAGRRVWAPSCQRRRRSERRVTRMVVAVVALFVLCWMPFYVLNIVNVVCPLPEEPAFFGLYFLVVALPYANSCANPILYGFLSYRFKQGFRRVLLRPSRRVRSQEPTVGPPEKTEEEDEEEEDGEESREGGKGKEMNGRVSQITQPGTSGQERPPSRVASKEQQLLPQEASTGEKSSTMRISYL
Sequence of Somatostatin receptor type 5 (P35346 whole entry): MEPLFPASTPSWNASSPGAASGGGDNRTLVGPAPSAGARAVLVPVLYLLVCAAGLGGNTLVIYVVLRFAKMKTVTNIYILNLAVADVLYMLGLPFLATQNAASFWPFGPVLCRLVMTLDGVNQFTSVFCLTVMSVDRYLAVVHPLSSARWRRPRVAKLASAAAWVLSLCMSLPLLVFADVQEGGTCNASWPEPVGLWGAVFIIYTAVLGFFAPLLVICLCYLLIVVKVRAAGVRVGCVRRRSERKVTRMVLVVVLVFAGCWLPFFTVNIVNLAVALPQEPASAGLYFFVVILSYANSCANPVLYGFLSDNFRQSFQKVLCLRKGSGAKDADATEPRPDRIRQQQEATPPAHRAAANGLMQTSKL

Row | Structure (SMILES) | IC50 [1] [nM] | IC50 [2] [nM] | IC50 [3] [nM] | IC50 [4] [nM]
1 | C[C@@H](O)[C@H](NC(=O)[C@H](Cc1ccccc1)NC(=O)[C@@H](NC(=O)[C@H](CCCCN)NC(=O)[C@@H](Cc1c[nH]c2ccccc12)NC(=O)[C@H](Cc1ccccc1)NC(=O)[C@H](Cc1ccccc1)NC(=O)[C@H](N)Cc1ccccc1)[C@@H](C)O)C(N)=O [CAS_133073-82-2] (H-[dF]FF[dW]KTFT-NH2) | 132 | – | – | –
2 | CC[C@@H]1NC(=O)[C@H](CCCCN)NC(=O)[C@@H](Cc2c[nH]c3ccccc23)NC(=O)[C@H](Cc2ccc(O)cc2)NC(=O)[C@@H](NC(=O)[C@@H](Cc2ccccc2)NC(=O)CN2CCN(CCO)CC2)CSSC[C@@H](C(=O)N[C@H](C(N)=O)[C@@H](C)O)NC1=O [BIM-23190] | 1000 | – | – | –
3 | C[C@@H](O)[C@@H]1NC(=O)[C@H](CCCCN)NC(=O)[C@@H](Cc2c[nH]c3ccccc23)NC(=O)[C@H](Cc2ccccc2)NC(=O)[C@H](Cc2ccccc2)NC(=O)[C@H](N)CSSC[C@H](C(N)=O)NC(=O)[C@H](Cc2ccccc2)NC1=O (H-[dC]FF[dW]KTF[dC]-NH2; disulfide 1-8) | – | 0.37 | 61.6 | 15.1
4 | CC(C)[C@@H]1NC(=O)[C@H](CCCCN)NC(=O)[C@@H](Cc2c[nH]c3ccccc23)NC(=O)[C@H](Cc2ccc(O)cc2)NC(=O)[C@@H](NC(=O)[C@H](N)Cc2ccc3ccccc3c2)CSSC[C@@H](C(=O)N[C@H](C(N)=O)[C@@H](C)O)NC1=O [3-(2-Naphtyl)-D-Ala-L-Cys(1)-L-Tyr-D-Trp-L-Lys-L-Val-L-Cys(1)-L-Thr-NH2] | – | – | 107 | –
5 | CC(C)[C@H](NC(=O)[C@H](CCCCN)NC(=O)[C@@H](Cc1c[nH]c2ccccc12)NC(=O)[C@H](Cc1ccc(O)cc1)NC(=O)[C@H](Cc1ccccc1)NC(=O)[C@H](N)Cc1ccccc1)C(=O)N[C@@H](Cc1ccccc1)C(=O)N[C@H](Cc1ccc2ccccc2c1)C(N)=O [CAS_150155-61-6] (H-[dF]FY[dW]KVF[d2Nal]-NH2) | 234 | 12.1 | 177 | 132
6 | CC[C@@H]1NC(=O)[C@H](CCCCN)NC(=O)[C@@H](Cc2c[nH]c3ccccc23)NC(=O)[C@H](Cc2ccc(O)cc2)NC(=O)[C@@H](NC(=O)[C@H](N)Cc2ccccc2)CSSC[C@@H](C(=O)N[C@H](C(N)=O)[C@@H](C)O)NC1=O [D-Phe-L-Cys(1)-L-Tyr-D-Trp-L-Lys-L-Abu-L-Cys(1)-L-Thr-NH2] | – | – | 89 | –
